In brackets after ≈: the same amount, converted by molar mass. Like-named read-outs stand apart in the source and are kept apart here.

For data set [1], the system named is neuroleptic effect as monitored behaviorally. Kind of data set: Minimum neuroleptic dose (MND). Type of data set: in vivo. The following applies: control preparation. The method, then:
The minimum neuroleptic dose (MND) was determined for each preparation. The minimum neuroleptic dose is defined as the minimum dose that caused a neuroleptic effect as monitored behaviorally. See, Kabanov et al., FEBS Lett. 258: 343-345, 1989. The MND for the copolymer-containing preparation was 0.02 mg/kg, while that of the control preparation was 2 mg/kg. The ratio of LD95/MND was 50 for the copolymer preparation and 5 for the control preparation.

Data set [2] concerns DBA/2 mice.
The test system of data set [3] is glucose level in plasma. Nature of the data set: Insulin-induced hypoglycemia, s.c. or p.o. It counts as in vivo, Balb/c mice. The method, then:
Hypoglycemia induced by high doses of insulin in mice was used as biological response criteria. The drug activity was evaluated by analyzing the glucose level in plasma versus time following drug administration. Isotonic solutions of free insulin (Ins) or insulin formulated with POE-POP block copolymer (“SP1-Ins”) were given to Balb/c mice at the same doses either s.c. or p.o.
Female six-week-old Balb/c mice (six animals per time point) were administered s.c. or p.o. with sterile 100 μl per 20 g of body weight (5 ml/kg) of Insulin or SP1-Insulin solutions, and the same volumes of isotonic solution were given to the control group of animals. Both Insulin and SP1-Insulin injections contained 0.02 mg/ml of insulin with activity of 27.3 μ/mg.
The animals were sacrificed after various time intervals (0.5-6 hr; post-administration), plasma samples were collected, and glucose levels were analyzed by standard glucosoxidase-peroxidase method. The statistical significance was analyzed by the multiple range text of Duncan-Kramer.

The test system of data set [4] is DBA/2 mice. The conditions noted are these: ±S.D.
Data set [5] has as its system SKVLB cell line (SK-resistant cells). Kind of data set: XTT cytotoxicity on SK-resistant cells. The conditions noted are these: for IC50: Homo sapiens. It counts as cell-based, human. (In general: Formazan colour is commonly taken as a measure of viable cells.)
For data set [6], the system named is SKOV3 line of transformed cells (SK cells). Nature of the data set: Cytotoxicity on SK cells. Type of data set: cell-based, human. The conditions noted are these: free drug.
Data set [7] concerns BALB/c male mice. The conditions noted are these: mouse, in vivo, ip.
Setting [8] is: control preparation, solution in RPMI 1640.
Setting [9] is: Example 10: 10% of LD95 i.p., stearoylated insulin-targeted micelles vs free drug.

`CN1CCN(CCCN2c3ccccc3Sc3ccc(C(F)(F)F)cc32)CC1` [Trifluorperazine]: in data set [1], the “minimum neuroleptic dose (MND)” value was 2 mg/kg and the “ratio of LD95/MND” value amounted to 5. For the same compound, the LD95 in data set [2] (setting [8]) came out at 10 mg/kg body weight.

The compound `CCN1CCCC1CNC(=O)c1cc(S(N)(=O)=O)ccc1OC` (stereo not shown) [Sulpiride] came in with an LD95 in data set [2] (setting [8]) of 100 mg/kg body weight.

For Insulin, in data set [3] (p.o., in words), the “changes in plasma glucose level” value was “only minor changes”. Moreover, the “time to return to the normal glucose level” value in data set [3] (s.c.) is on record as “about 6 hours”. The “glucose level in plasma” value in data set [3] (s.c., 3 hours after administration) is on record as “about 15 % of the normal level”.

Consider `O=C(CCCN1CCC(O)(c2ccc(Cl)cc2)CC1)c1ccc(F)cc1` [haloperidol], for which the Horizontal mobility in data set [4] (Example 7: 10% of LD95 i.p., antibody-targeted micelles vs free drug) is listed as 204.6 ± 24%. In data set [4] (setting [9]), this compound gave a Grooming of 1656.4 ± 6.5% and a Horizontal mobility of 180.1 ± 26%. The LD95 in data set [2] (i.p., without the Pluronic vehicle) is 75 mg/kg.

The IC50 is the point on the concentration scale where inhibition reaches its midpoint. `COc1cccc2c1C(=O)c1c(O)c3c(c(O)c1C2=O)C[C@@](O)(C(=O)CO)C[C@@H]3O[C@H]1C[C@H](N)[C@H](O)[C@H](C)O1` [Free doxorubicin, doxorubicin]: in data set [5], 60 µg/mL (≈ 110 µM) corresponded to half-maximal inhibition (IC50).

Take `CO[C@@]12[C@H](COC(N)=O)C3=C(C(=O)C(C)=C(N)C3=O)N1C[C@@H]1N[C@@H]12` [mitomycin C]: the “IC50 against SK-resistant cells” value in data set [5] (free drug) worked out at 1.120 µg/mL (≈ 3.35 µM). Besides, in data set [6], the “IC50 against SK cells” value came to 0.320 µg/mL (≈ 0.957 µM).

Consider Pluronic P85, for which the “MTD” value in data set [7] is 200 mg/kg.

Consider `CN(Cc1cnc2nc(N)nc(N)c2n1)c1ccc(C(=O)N[C@@H](CCC(=O)O)C(=O)O)cc1` [methotrexate], for which the IC50 in data set [5] (free drug, read-out: IC50 against SK-resistant cells) was determined as 1.34 µg/mL (≈ 2.95 µM).

The record behind these values is US6387406B1, “Copolymer compositions for oral delivery” (Supratek Pharma Inc., priority 1992, dated 2002).
